Series [1] is described as follows: Stability under denaturing conditions in incubators, determined by DSC over 2 months. The class given is physicochemical. The procedure: Samples of the compounds of Examples 1, 2 and 3 are placed in incubators under denaturing conditions and the stability is determined by DSC measurements over 2 months.
On the technique in general: Differential scanning calorimetry records heat flow against a reference as temperature is scanned.

Series [2] is described as follows: Solubility by HPLC (external standard method) compared with agomelatine of form II. The class given is physicochemical. The procedure: Using an external standard method, the compounds of Examples 1, 2 and 3 are tested by HPLC and compared with agomelatine of form II. The results are presented in Table 5 in the form of % increase in solubility relative to the solubility of agomelatine of form II: […]

The record followed here is patent US9573891B2, “Complexes of agomelatine and sulphonic acids, a process for their preparation and pharmaceutical compositions containing them” (LES LABORATOIRES SERVIER, priority 2013, dated 2017).

As to `COc1ccc2cccc(CCNC(C)=O)c2c1.O=S(=O)(O)c1cccc2c(S(=O)(=O)O)cccc12` [Compound of Example 1, Agomelatine/1,5-Naphthalenedisulphonic Acid (2/1) Complex], the Stability entry in series [1] (25° C., 60% RH, open bottle) is listed as “stable”. For the same molecule, the Stability entry in series [1] (50° C., closed bottle) is “stable”. The Stability entry in series [1] (70° C., closed bottle) was “stable”. Also, in series [2], the “Solubility (increase versus agomelatine form II) in 0.1N HCl” value is recorded as “+25%”, the “Solubility (increase versus agomelatine form II) in a buffer pH 6.8” value is recorded as “+48%” and the “Solubility (increase versus agomelatine form II) in water” value was “+18%”.
Consider `COc1ccc2cccc(CCNC(C)=O)c2c1.O.O=S(=O)(O)c1cccc2c(S(=O)(=O)O)cccc12` [Compound of Example 2, Agomelatine/1,5-Naphthalenedisulphonic Acid (2/1) Monohydrate Complex], for which the Stability entry in series [1] (25° C., 60% RH, open bottle) is given as “stable”. The Stability entry in series [1] (50° C., closed bottle) was “stable”. Moreover, the Stability result in series [1] (70° C., closed bottle) was “stable”. Also, in series [2], the “Solubility (increase versus agomelatine form II) in 0.1N HCl” value was “+75%”, the “Solubility (increase versus agomelatine form II) in a buffer pH 6.8” value is “+57%” and the “Solubility (increase versus agomelatine form II) in water” value is reported as “+12%”.
For `COc1ccc2cccc(CCNC(C)=O)c2c1.COc1ccc2cccc(CCNC(C)=O)c2c1.O=S(=O)(O)c1ccccc1` [Compound of Example 3, Agomelatine/Benzenesulphonic Acid (2/1) Complex], the Stability result in series [1] (25° C., 60% RH, open bottle) was “stable”. Further, the Stability result in series [1] (50° C., closed bottle) was “stable”. In addition, the Stability result in series [1] (70° C., closed bottle) is on record as “stable”. Further, in series [2], the “Solubility (increase versus agomelatine form II) in 0.1N HCl” value is “+32%”, the “Solubility (increase versus agomelatine form II) in a buffer pH 6.8” value is “+46%” and the “Solubility (increase versus agomelatine form II) in water” value is on record as “+22%”.
